Marks after values point to notes of the source that are not given here. No end group written: not given here.

The source of these data is patent US20040180835A1, “Use of the protein uk114 or of fragments thereof for the treatment and prevention of the endotoxic shock” (priority 2001, published 2004).

The test system of the experiment is LPS-induced endotoxic shock. Nature of the experiment: LPS-induced endotoxic shock in mice (death rate after LPS injection). The format is in vivo, Balb/c mice. As for the experimental part:
The pharmacological activity of UK 114 and of the peptides of the invention has been studied on the murine model of LPS-induced shock, as reported in the following Example.
Balb/c mice 6-8 weeks old were treated i.p. with 30 mcg of UK114 in 100 μl PBS (group B) or with 4 mcg of peptide 76-90 (group C) 24 hours and one hour before the administration of 500 mcg of LPS. A control group of mice (group A) was tretated with 100 μl PBS according to the same protocol used for groups C and B.
A further group was treated only with UK114 one hour after the administration of LPS (group D). This experimental approach more closely resembles the clinical practice where it is difficult to intervene prophylactically.
The death rate of the animals in each group was recorded every 12 hours up to the third day from the LPS injection.

For VVKATVLLADINDFS [pep. 76-90], the “Death-rate (at 72 h)” value (prophylactic i.p. treatment 24 hours and one hour before 500 mcg LPS, UK114 30 mcg, peptide 76-90 4 mcg, 50 mice per group, PBS control 40/50 (80%)) was 25/50(50%)***. The “Protection from the lethal effects of LPS” value (prophylactic treatment, 72 hours post LPS, vs PBS control group) was “clearly protected from the lethal effects of LPS”.
